Test results taken from patent publication US20210332083A1, “Netrin-1 Compounds and Compositions Thereof for Treating Pulmonary Hypertension” (The Regents of the University of California, priority 2018, published 2021).
Positions of bridges follow the written chain, without caps; N, C: chain ends. Non-standard residues stand in square brackets, D forms with d. No end group written: not given here. mini‑PEG = diethylene glycol

System: hypoxia induced pulmonary hypertensive mice
Experiment: Hemodynamic analysis (mPAP, RVSP by catheter) in hypoxia induced PH mice
Type: in vivo, C57BL/6 mice
Conditions: for mPAP (mmHg) / RVSP (mmHg): Mean ± SEM; for % Improvement (reduction in pressure/increase), RVSP / % Improvement (reduction in pressure/increase), mPAP: vs hypoxia w/o treatment; for % Reduction RVSP / % Reduction mPAP: Table 3, (negative control mmHg-netrin-1 compound)/(negative control mmHg); for mean pulmonary arterial pressure (mPAP) / right ventricular systolic pressure (RVSP): mice, 10% oxygen 21 days, 15 ng/day s.c. mini-osmotic pump, mean±SEM; for mean pulmonary arterial pressure (mPAP): hypoxia 40.54±4.473, normoxia 19.41±1.281; for right ventricular systolic pressure (RVSP): hypoxia 41.94±3.287, normoxia 32.20±1.884
Protocol: All animal experiments were approved by the Institutional Animal Care and Usage Committee at the University of California, Los Angeles (UCLA). […] groups of 9-12 weeks old male C57BL/6 mice (Charles River Laboratories, Wilmington, Mass.) were implanted using mini-osmotic pumps subcutaneously releasing the given netrin-1 compound (netrin-1, V1-9aa, V2-10aa, V3-11aa, V1P, V2P, V3P, V1S, V1T, V1D, V1C) at 15 ng/day, and the mice were housed under room air or 10% oxygen conditions in a normobaric chamber for 21 days. The hypoxic environment was maintained by continuous mixed gas flow (10% oxygen/90% nitrogen gas). The animals were fed and watered ad libitum, and cages were changed twice weekly. After the chamber was closed, the mixed gas was flushed to recover the hypoxic environment as quickly as possible. Animals were maintained at 20° C. with a 12:12-hour light-dark cycle. At the end of the treatment period, animals were anesthetized and hemodynamic analyses were performed by introducing 1.4 F catheter (Millar instruments, Houston, Tex.) into right ventricle and pulmonary artery. The right ventricular systolic blood pressure (RVSP) and the mean pulmonary arterial pressure (mPAP) were recorded using a Power Lab data acquisition system (ADInstruments Inc., CO).
All animal experiments were approved by the Institutional Animal Care and Usage Committee at the University of California, Los Angeles (UCLA). Eleven groups of 9-12 weeks old male C57BL/6 mice (Charles River Laboratories, Wilmington, Mass.) were implanted using mini-osmotic pumps subcutaneously releasing Netrin-1 derived peptides and modified peptides at 15 ng/day (Netrin-1, V1, V2, V3, V1P, V2P, V3P, V1S, V1T, V1D and V1C), and the mice were housed under room air or 10% oxygen conditions in a normobaric chamber for 21 days. The hypoxic environment was maintained by continuous mixed gas flow (10% oxygen/5% CO2 balanced with nitrogen gas). The animals were fed and watered ad libitum, and cages were changed twice weekly. After the chamber was closed, the mixed gas was flushed to recover the hypoxic environment as quickly as possible. Animals were maintained at 20° C. with a 12:12-hour light-dark cycle.
At the end of the treatment period, animals were anesthetized and hemodynamic analysis were performed by introducing 1.4 F catheter (Mikro-Tip® catheter-transducer; Model SPR-671, Millar instruments, Houston, Tex.) into both right and left ventricle and pulmonary artery. The right ventricular systolic blood pressure (RVSP), pulmonary arterial pressure (PAP), left ventricular systolic pressure (LVSP) and aortic pressure were recorded using a Power Lab data acquisition system (ADInstruments Inc., CO).

[1] = Table 2, n = 4-6, hypoxia w/o treatment 40.54 ± 4.473, normal control 19.41 ± 1.281
[2] = Table 2, n = 4-6, hypoxia w/o treatment 41.94 ± 3.281, normal control 32.20 ± 1.884
[3] = Table 2, printed over hypoxia-induced increase 9.74
[4] = Table 2, printed over hypoxia-induced increase 21.13
[5] = Table 1, n = 4-5, hypoxia w/o treatment 38.98 ± 1.747, normal control 32.20 ± 1.884
[6] = Table 1, n = 4-5, hypoxia w/o treatment 39.54 ± 5.341, normal control 19.41 ± 1.281
[7] = Table 1, hypoxia-induced increase 6.78
[8] = Table 1, hypoxia-induced increase 19.39

Row | Substance | mPAP (mmHg) [1] [mmHg] | RVSP (mmHg) [2] [mmHg] | reduction in pressure (of reduction in pressure/increase), RVSP [3] | reduction in pressure (of reduction in pressure/increase), mPAP [4] | % Improvement (reduction in pressure/increase), RVSP (Table 2) [%] | % Improvement (reduction in pressure/increase), mPAP (Table 2) [%] | % Reduction RVSP [%] | % Reduction mPAP [%] | mean pulmonary arterial pressure (mPAP) [mmHg] | right ventricular systolic pressure (RVSP) [mmHg] | RVSP (mmHg) [5] [mmHg] | mPAP (mmHg) [6] [mmHg] | reduction in pressure (of reduction in pressure/increase), RVSP [7] | reduction in pressure (of reduction in pressure/increase), mPAP [8] | % Improvement (reduction in pressure/increase), RVSP (Table 1) [%] | % Improvement (reduction in pressure/increase), mPAP (Table 1) [%] | attenuation (inhibition) of RVSP increase (hypoxia-induced RVSP increase) [%]
1 | (mini-PEG)-CLNCRHNTAG ({mini‑PEG}-CLNCRHNTAG; cysteine pairing not given here) [V2P] | 27.39 ± 2.973 | 29.95 ± 1.661 | > 9.74 | (13.15/21.13) | 100 | 62 | 29 | 32 | 27.39±2.973 | 29.95±1.661 | – | – | – | – | – | – | –
2 | CPCKDGVTGIT (Peptide based on human Netrin-1 sequence) [V3-11aa, 423-433 aa] | – | – | – | – | – | – | 20 | 26 | 29.35±3.635 | 31.23±1.773 | 31.23 ± 1.773 | 29.35 ± 3.635 | (>6.78/6.78) | (10.19/19.39) | 100 | 53 | –
3 | TDCRHNTAG (Peptide based on human Netrin-1 sequence) [V1T] | 24.52 ± 2.686 | 29.03 ± 2.960 | > 9.74 | (16.02/21.13) | 100 | 76 | 31 | 40 | 24.52±2.686 | 29.03±2.960 | – | – | – | – | – | – | –
4 | CLNCRHNTAG (Peptide based on human Netrin-1 sequence) [V2-10aa, 368-377 aa] | – | – | – | – | – | – | 15 | 35 | 25.74±3.788 | 33.10±1.044 | 33.10 ± 1.044 | 25.74 ± 3.788 | (5.88/6.78) | (13.8/19.39) | 87 | 71 | 91
5 | CDCRHNTAG [V1C] (disulfide 1-3) | 17.76 ± 1.403 | 26.80 ± 3.051 | > 9.74 | (>21.32/21.13) | 100 | 100 | 36 | 56 | 17.76±1.403 | 26.80±3.051 | – | – | – | – | – | – | –
6 | CDCRHNTAG [V1-9aa] (Peptide based on human Netrin-1 sequence) [304-312 aa of human netrin-1] | – | – | – | – | – | – | 19 | 40 | 23.83±5.149 | 31.50±3.321 | 31.50 ± 3.321 | 23.83 ± 5.149 | (>6.78/6.78) | (15.97/19.39) | 100 | 81 | –
7 | SDCRHNTAG (Peptide based on human Netrin-1 sequence) [V1S] | 16.58 ± 1.608 | 23.62 ± 0.518 | > 9.74 | (>21.32/21.13) | 100 | 100 | 44 | 59 | 16.58±1.608 | 23.62±0.518 | – | – | – | – | – | – | –
8 | (mini-PEG)-CPCKDGVTIGIT ({mini‑PEG}-CPCKDGVTIGIT; cysteine pairing not given here) [V3P] | 20.22 ± 1.304 | 29.27 ± 1.986 | > 9.74 | (20.32/21.13) | 100 | 96 | 30 | 50 | 20.22±1.304 | 29.27±1.986 | – | – | – | – | – | – | –
9 | (mini-PEG)-CDCRHNTAG ({mini‑PEG}-CDCRHNTAG; not fully specified (bridges); printed as (mini-PEG)-CDCRHNTAG; cysteine pairing not given here) [V1P] | 21.88 ± 3.020 | 30.95 ± 3.867 | > 9.74 | (18.66/21.13) | 100 | 88 | 26 | 46 | 21.88±3.020 | 30.95±3.876 | – | – | – | – | – | – | –
10 | dCDCRHNTAdG ([dC]DCRHNTAG; cysteine pairing not given here) [V1D] | 22.89 ± 3.237 | 29.41 ± 3.876 | > 9.74 | (17.65/21.13) | 100 | 84 | 30 | 44 | 22.89±3.237 | 29.41±3.876 | – | – | – | – | – | – | –
